This passage reports inhibition results from patent US10406146B2, “Heterocyclic compound” (TAKEDA PHARMACEUTICAL COMPANY LIMITED, priority 2015, dated 2019).

Common to all, as to assay type: biochemical
In one test the target is T1, HDAC1 enzyme (Homo sapiens, UniProt Q13547).
T1 construct: transducing full length HDAC1 and HDAC6 genes into Sf-9 insect cells; GST; purchased SignalChem; host or cells: Sf-9 insect cells
As to the kind of experiment: HDAC1 enzyme inhibitory assay (HDAC-Glo I/II Assay kit). Conditions: wells without enzyme = 100% inhibition, read-out: HDAC1 inhibitory rate (%) (1 μM). On the procedure: (§1) HDAC1/6 Enzyme Inhibitory Assay
(§2) HDAC1 enzyme and HDAC6 enzyme each prepared by transducing full length HDAC1 and HDAC6 genes into Sf-9 insect cells and purifying by GST affinity column were purchased from SignalChem. Using these enzymes, HDAC1 and/or HDAC6 enzyme inhibitory activities of the compound of the present invention were evaluated. Enzymes were used after preserved at −70° C. HDAC1 or HDAC6 enzyme inhibitory activity of the compound of the present invention was measured using HDAC-Glo™ I/II Assay kit (Promega) according to the following experimental method. The test compound diluted with assay buffer (24 mM Tris-HCl (pH 7.5), 1 mM MgCl2, 0.35 mM KCl, 135 mM NaCl, 0.6 mM Glutathione, 0.01% Tween-20) was added to a 384-well plate by each 2 μL. Then, HDAC1 or HDAC6 enzyme solution diluted with assay buffer was added thereto by each 4 μL, and the plate was incubated at room temperature for 60 min. After incubated, HDAC substrate-Developer solution prepared according to Promega protocol attached to the assay kit was added to the 384-well plate by each 2 μL, and the enzyme reaction was started. After reacting at room temperature for 20 min, luminescence level was measured using plate reader Envision (PerkinElmer). The inhibitory activity of each compound was calculated as a relative activity value when luminescence level in wells without enzyme is considered as 100% inhibition.

Another test has as its target T2, HDAC6 enzyme (Homo sapiens, UniProt Q9UBN7).
T2 construct: transducing full length HDAC1 and HDAC6 genes into Sf-9 insect cells; GST; purchased SignalChem; host or cells: Sf-9 insect cells
T2 sequence (Q9UBN7 1-1215): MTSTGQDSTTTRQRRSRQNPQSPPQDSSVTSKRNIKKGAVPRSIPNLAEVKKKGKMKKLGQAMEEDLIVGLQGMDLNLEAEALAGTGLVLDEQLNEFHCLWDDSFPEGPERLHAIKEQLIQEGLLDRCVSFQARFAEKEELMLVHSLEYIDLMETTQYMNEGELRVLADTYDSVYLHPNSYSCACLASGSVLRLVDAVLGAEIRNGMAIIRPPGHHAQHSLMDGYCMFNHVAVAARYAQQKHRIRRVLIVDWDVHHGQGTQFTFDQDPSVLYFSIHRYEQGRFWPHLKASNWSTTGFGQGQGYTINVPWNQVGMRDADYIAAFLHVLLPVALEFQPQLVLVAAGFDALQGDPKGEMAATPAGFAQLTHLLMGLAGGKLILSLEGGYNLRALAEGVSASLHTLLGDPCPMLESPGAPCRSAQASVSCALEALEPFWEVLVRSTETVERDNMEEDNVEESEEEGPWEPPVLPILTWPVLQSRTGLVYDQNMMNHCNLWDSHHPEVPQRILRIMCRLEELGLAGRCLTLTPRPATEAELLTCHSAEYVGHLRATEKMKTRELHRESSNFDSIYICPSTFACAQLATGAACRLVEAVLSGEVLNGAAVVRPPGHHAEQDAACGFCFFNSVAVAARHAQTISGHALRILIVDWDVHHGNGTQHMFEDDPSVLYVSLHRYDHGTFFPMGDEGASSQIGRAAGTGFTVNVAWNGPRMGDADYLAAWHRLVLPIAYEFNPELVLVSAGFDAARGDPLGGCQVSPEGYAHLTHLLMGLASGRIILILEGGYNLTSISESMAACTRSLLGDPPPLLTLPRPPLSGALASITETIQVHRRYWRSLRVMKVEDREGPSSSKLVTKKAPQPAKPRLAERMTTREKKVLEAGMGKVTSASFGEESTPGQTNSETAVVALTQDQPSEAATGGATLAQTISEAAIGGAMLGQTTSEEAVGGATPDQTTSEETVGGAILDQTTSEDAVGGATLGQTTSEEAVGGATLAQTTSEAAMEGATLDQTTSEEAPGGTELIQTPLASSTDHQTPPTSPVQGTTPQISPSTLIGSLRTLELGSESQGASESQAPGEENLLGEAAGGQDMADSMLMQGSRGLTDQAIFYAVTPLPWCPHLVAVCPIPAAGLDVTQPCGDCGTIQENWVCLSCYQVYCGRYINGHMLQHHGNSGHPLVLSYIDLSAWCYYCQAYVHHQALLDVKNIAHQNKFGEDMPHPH
The experiment in a line: HDAC6 enzyme inhibitory assay (HDAC-Glo I/II Assay kit). Particulars: wells without enzyme = 100% inhibition, read-out: HDAC6 inhibitory rate (%) (1 μM). On the procedure: as §1, §2

Another test has as its target T3, HDAC9 enzyme (Homo sapiens, UniProt Q9UKV0).
T3 construct: transducing full length HDAC9 gene into Sf-9 insect cells; made in house; host or cells: Sf-9 insect cells
As to the kind of experiment: HDAC9 enzyme inhibitory assay (HDAC-Glo class IIa). Particulars: wells without enzyme = 100% inhibition, read-out: HDAC9 inhibitory rate (%) (1 μM). On the procedure:
HDAC9 Enzyme Inhibitory Assay
Enzyme was prepared by transducing full length HDAC9 gene into Sf-9 insect cells and purifying by Ni-NTA affinity column, and HDAC9 enzyme inhibitory activity was evaluated. Enzymes were used after preserved at −70° C. HDAC9 enzyme inhibitory activity of the test compound was measured using HDAC-Glo class IIa (Promega) according to the following experimental method. The test compound diluted with assay buffer (24 mM Tris-HCl (pH 7.5), 1 mM MgCl2, 0.35 mM KCl, 135 mM NaCl, 0.6 mM Glutathione, 0.01% Tween-20) was added to a 384-well plate by each 2 μL. Then, HDAC9 enzyme solution diluted with assay buffer was added thereto by each 2 μL, and the plate was incubated at room temperature for 60 min. After incubated, HDAC substrate-Developer solution prepared according to Promega protocol was added to the 384-well plate by each 4 μL, and the enzyme reaction was started. After reacting at room temperature for 20 min, luminescence level was measured using plate reader Envision (PerkinElmer). The inhibitory activity of each compound was calculated as a relative activity value when luminescence level in wells without enzyme is considered as 100% inhibition.

T3 sequence (Q9UKV0 whole entry, species assumed): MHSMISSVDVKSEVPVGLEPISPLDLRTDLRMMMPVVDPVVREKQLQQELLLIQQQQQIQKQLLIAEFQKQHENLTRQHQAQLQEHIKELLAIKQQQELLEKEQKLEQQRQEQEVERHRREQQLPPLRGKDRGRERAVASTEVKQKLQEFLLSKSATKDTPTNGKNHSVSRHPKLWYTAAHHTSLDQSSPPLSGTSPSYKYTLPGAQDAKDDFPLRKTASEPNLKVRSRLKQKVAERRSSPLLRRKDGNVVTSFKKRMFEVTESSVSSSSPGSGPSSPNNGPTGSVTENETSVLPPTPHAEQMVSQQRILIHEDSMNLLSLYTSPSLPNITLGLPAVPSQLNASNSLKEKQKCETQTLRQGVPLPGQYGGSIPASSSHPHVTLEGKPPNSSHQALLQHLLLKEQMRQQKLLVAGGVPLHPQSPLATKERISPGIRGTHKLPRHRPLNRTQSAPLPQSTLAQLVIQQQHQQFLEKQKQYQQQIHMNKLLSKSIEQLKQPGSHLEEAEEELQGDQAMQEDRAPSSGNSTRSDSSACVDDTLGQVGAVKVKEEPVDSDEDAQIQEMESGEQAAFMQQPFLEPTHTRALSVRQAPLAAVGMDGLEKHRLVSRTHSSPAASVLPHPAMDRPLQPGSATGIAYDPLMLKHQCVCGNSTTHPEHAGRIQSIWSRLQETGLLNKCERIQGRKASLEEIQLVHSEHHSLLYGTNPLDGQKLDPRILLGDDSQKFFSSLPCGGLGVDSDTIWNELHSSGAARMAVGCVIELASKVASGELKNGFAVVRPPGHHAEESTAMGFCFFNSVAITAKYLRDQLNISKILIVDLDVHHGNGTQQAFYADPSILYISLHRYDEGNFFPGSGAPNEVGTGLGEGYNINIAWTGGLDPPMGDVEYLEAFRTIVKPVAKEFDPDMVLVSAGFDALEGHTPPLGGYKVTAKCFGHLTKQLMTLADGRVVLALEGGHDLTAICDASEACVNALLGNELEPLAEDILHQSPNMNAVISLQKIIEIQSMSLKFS
T1 sequence (Q13547 whole entry): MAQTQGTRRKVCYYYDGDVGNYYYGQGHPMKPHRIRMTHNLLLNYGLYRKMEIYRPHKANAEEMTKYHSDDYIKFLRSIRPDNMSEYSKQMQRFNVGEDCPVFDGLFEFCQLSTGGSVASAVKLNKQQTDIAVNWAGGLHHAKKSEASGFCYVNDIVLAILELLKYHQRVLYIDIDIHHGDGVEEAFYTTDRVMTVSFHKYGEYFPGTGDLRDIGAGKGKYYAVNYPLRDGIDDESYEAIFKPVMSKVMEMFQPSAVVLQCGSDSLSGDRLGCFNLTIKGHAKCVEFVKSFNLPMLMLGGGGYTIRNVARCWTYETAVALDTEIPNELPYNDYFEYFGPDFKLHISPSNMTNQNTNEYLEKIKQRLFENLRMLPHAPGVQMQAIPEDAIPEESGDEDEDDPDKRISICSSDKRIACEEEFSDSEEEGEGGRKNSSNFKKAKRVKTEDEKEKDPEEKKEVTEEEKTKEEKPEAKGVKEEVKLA

Take `N#Cc1ccccc1C(=O)NCC1CCCCN1C(=O)Nc1ccc(-c2noc(C(F)(F)F)n2)cc1` (stereo not drawn) [Example 19, 2-(((2-cyanobenzoyl)amino)methyl)-N-(4-(5-(trifluoromethyl)-1,2,4-oxadiazol-3-yl)phenyl)piperidine-1-carboxamide]: the figures for the inhibition at 1 µM at HDAC1 enzyme, at HDAC6 enzyme and at HDAC9 enzyme were 15%, 2% and 72%, respectively.

Regarding `O=C(NCC1COCCN1C(=O)Nc1ccc(-c2noc(C(F)(F)F)n2)cn1)c1ccccc1` (stereo not drawn) [Example 64, 3-((benzoylamino)methyl)-N-(5-(5-(trifluoromethyl)-1,2,4-oxadiazol-3-yl)pyridin-2-yl)morpholine-4-carboxamide], the results for the inhibition at 1 µM at HDAC1 enzyme, on HDAC6 enzyme and at HDAC9 enzyme were 85%, 15% and 94%, respectively.

Consider `O=C(NCC1CCCCN1C(=O)Nc1ccc(-c2noc(C(F)(F)F)n2)cc1)C1CCc2ccccc2O1` (stereo not drawn) [Example 43, 2-(((3,4-dihydro-2H-chromen-2-ylcarbonyl)amino)methyl)-N-(4-(5-(trifluoromethyl)-1,2,4-oxadiazol-3-yl)phenyl)piperidine-1-carboxamide], for which the inhibition at 1 µM at HDAC1 enzyme worked out at 57%; on HDAC6 enzyme it was 7%; at HDAC9 enzyme, 74%.

Take `O=C(NCC1CCCCN1C(=O)Nc1ccc(-c2noc(C(F)(F)F)n2)cc1)c1ccccc1-c1ccccc1` (stereo not drawn) [Example 13, 2-(((biphenyl-2-ylcarbonyl)amino)methyl)-N-(4-(5-(trifluoromethyl)-1,2,4-oxadiazol-3-yl)phenyl)piperidine-1-carboxamide]: the inhibition at 1 µM was 19% at HDAC1 enzyme, 9% at HDAC6 enzyme and 82% on HDAC9 enzyme.

For `Cn1cnc(C(=O)NCC2CCCCN2C(=O)Nc2ccc(-c3noc(C(F)(F)F)n3)cc2)c1` (stereo not drawn) [Example 40, 2-((((1-methyl-1H-imidazol-4-yl)carbonyl)amino)methyl)-N-(4-(5-(trifluoromethyl)-1,2,4-oxadiazol-3-yl)phenyl)piperidine-1-carboxamide], the inhibition at 1 µM was found to be 11% on HDAC1 enzyme, 3% on HDAC6 enzyme and 76% at HDAC9 enzyme.

As for `Cn1ccnc1C(=O)NCC1CCCCN1C(=O)Nc1ccc(-c2noc(C(F)(F)F)n2)cc1` (stereo not drawn) [Example 39, 2-((((1-methyl-1H-imidazol-2-yl)carbonyl)amino)methyl)-N-(4-(5-(trifluoromethyl)-1,2,4-oxadiazol-3-yl)phenyl)piperidine-1-carboxamide], the inhibition at 1 µM was 47% on HDAC1 enzyme, 5% at HDAC6 enzyme and 90% on HDAC9 enzyme.

Turning to `Cc1ccc(C(=O)NCC2CCCCN2C(=O)Nc2ccc(-c3noc(C(F)(F)F)n3)cc2)cc1` (stereo not drawn) [Example 12, 2-(((4-methylbenzoyl)amino)methyl)-N-(4-(5-(trifluoromethyl)-1,2,4-oxadiazol-3-yl)phenyl)piperidine-1-carboxamide], the inhibition at 1 µM on HDAC1 enzyme is -16%; at HDAC6 enzyme, 5%; at HDAC9 enzyme, 67%.

In the case of `N#Cc1ccc(C(=O)NCC2CCCCN2C(=O)Nc2ccc(-c3noc(C(F)(F)F)n3)cc2)cc1` (stereo not drawn) [Example 21, 2-(((4-cyanobenzoyl)amino)methyl)-N-(4-(5-(trifluoromethyl)-1,2,4-oxadiazol-3-yl)phenyl)piperidine-1-carboxamide], the inhibition at 1 µM on HDAC1 enzyme came to 28%; at HDAC6 enzyme, 0%; at HDAC9 enzyme it was 94%.

Turning to `O=C(NCC1COCCN1C(=O)Nc1ccc(-c2noc(C(F)(F)F)n2)cc1)c1ccccc1` (stereo not drawn) [Example 1, 3-((benzoylamino)methyl)-N-(4-(5-(trifluoromethyl)-1,2,4-oxadiazol-3-yl)phenyl)morpholine-4-carboxamide], the results for the inhibition at 1 µM at HDAC1 enzyme, at HDAC6 enzyme and on HDAC9 enzyme were 62%, 6% and 98%, respectively.

With `O=C(NCC1CCCCN1C(=O)Nc1ccc(-c2noc(C(F)(F)F)n2)cc1)c1ccccc1Cl` (stereo not drawn) [Example 7, 2-(((2-chlorobenzoyl)amino)methyl)-N-(4-(5-(trifluoromethyl)-1,2,4-oxadiazol-3-yl)phenyl)piperidine-1-carboxamide], the figures for the inhibition at 1 µM on HDAC1 enzyme, on HDAC6 enzyme and on HDAC9 enzyme were -3%, 3% and 52%, respectively.

With `O=C(NCC1CCCCN1C(=O)Nc1ccc(-c2noc(C(F)(F)F)n2)cc1)c1ccc(C(F)(F)F)cc1` (stereo not drawn) [Example 18, 2-(((4-(trifluoromethyl)benzoyl)amino)methyl)-N-(4-(5-(trifluoromethyl)-1,2,4-oxadiazol-3-yl)phenyl)piperidine-1-carboxamide], the inhibition at 1 µM at HDAC1 enzyme was -7%; at HDAC6 enzyme, 2%; at HDAC9 enzyme, 39%.

`Cn1nc(C(=O)NCC2CCCCN2C(=O)Nc2ccc(-c3noc(C(F)(F)F)n3)cc2)cc1C(F)(F)F` (stereo not drawn) [Example 59, 2-((((1-methyl-5-(trifluoromethyl)-1H-pyrazol-3-yl)carbonyl)amino)methyl)-N-(4-(5-(trifluoromethyl)-1,2,4-oxadiazol-3-yl)phenyl)piperidine-1-carboxamide]: the inhibition at 1 µM on HDAC1 enzyme worked out at 10%; on HDAC6 enzyme, 1%; at HDAC9 enzyme, 63%.

For the molecule `Cc1ccccc1C(=O)NCC1CCCCN1C(=O)Nc1ccc(-c2noc(C(F)(F)F)n2)cc1` (stereo not drawn) [Example 10, 2-(((2-methylbenzoyl)amino)methyl)-N-(4-(5-(trifluoromethyl)-1,2,4-oxadiazol-3-yl)phenyl)piperidine-1-carboxamide], the inhibition at 1 µM on HDAC1 enzyme is 4%; at HDAC6 enzyme, 5%; on HDAC9 enzyme, 84%.

Regarding `Cn1nccc1C(=O)NCC1COCCN1C(=O)Nc1ccc(-c2noc(C(F)(F)F)n2)cc1` (stereo not drawn) [Example 61, 3-((((1-methyl-1H-pyrazol-5-yl)carbonyl)amino)methyl)-N-(4-(5-(trifluoromethyl)-1,2,4-oxadiazol-3-yl)phenyl)morpholine-4-carboxamide], the inhibition at 1 µM on HDAC1 enzyme turned out to be 62%; on HDAC6 enzyme, 8%; on HDAC9 enzyme, 98%.
